Tests used:
Assay type in all cases: in vivo, mouse
IL-1α = test: Serum IL-1α in DO11.10 mice primed with OVA-peptide and challenged with LPS; conditions: challenged with the highest LPS dose
Experimental: (§1) Animals are provided as described in Example 2a).
(§2) b) Administration of OVA323-339 (=OVA-peptide) and LPS Groups of six DO11.10 mice receive i.p. 30 μg of OVA323-339 peptide (98% purity, pi Chem R&D, Graz Austria) in 0.2 ml 0.9% saline per mouse. Control mice are injected i.p. with the same amount of saline.
(§3) 18 hours later the mice are challenged i.p. with 100, 300 or 500 μg LPS (E. coli 0111: B4 Sigma Vienna, Austria). At 2, 4 and 6 hours after the LPS administration about 200 μl of blood are collected by puncture of the retro-orbital plexus under ether anesthesia. The sera are collected and stored frozen at −20° until analyzed.
(§4) Murine IL-1α, IL-1β and TNF-α serum levels are determined by ELISAs (IL-1α and TNF-α, Bender MedSystems, Vienna Austria; IL-1β, Quantikine R&D Systems, Minneapolis, Minn.). Results are expressed as pg per ml serum. Differences in the serum cytokines concentrations between the different experimental groups are examined for statistical significance by the Mann-Whitney U test, two tailed. Results are expressed as the mean±SEM. p<0.05 is regarded as significant.
The injection of OVA-peptide at doses between 3 and 90 μg per mouse increases serum concentrations of IFN-γ as well as other cytokines, such as IL-4 and IL-2, in a dose/amount-dependent way. […] The serum IL-1α levels are expressed as mean pg per ml serum±SEM.

IL-1β = test: Serum IL-1β in DO11.10 mice primed with OVA-peptide and challenged with LPS
Experimental: as §1, §2, §3, §4
Values of serum IL-1β responses in control DO11.10 mice challenged with various doses of LPS (=NaCl+LPS) and in mice primed with the OVA-peptide 18 hours prior to the LPS challenge (=OVA+LPS) are given in TABLE 7. The serum IL-1β levels are expressed as mean pg per ml serum±SEM.

IL-4 = test: Serum IL-4 in OVA323-339 stimulated DO11.10 mice (ELISA); conditions: for IL-4 level in pg/ml serum on day 0 after 0 hours: 0 hours (before injection)
Experimental: Groups of six, 8-10 weeks old, male or female DO11.10 mice weighing between 20-22 g are obtained as described in Murphy K. M. et al. 1990, Science 250:1720-1722. The animals are maintained in Microvent positive air supply cages (22±1° C., 55±5% relative humidity, 50-70 changes of fresh air/hour and 12 hours day and night cycle) with sawdust bedding. Standard laboratory mouse chow (SNIFF, Soest, Germany) and drinking water is given ad libidum. The animals are used for the study after an adaptation period of 10-14 days and grouped (6 per group) in type II Macrolon cages one day before the experiment.
Groups of six DO11.10 mice are i.p. injected with 10 μg of ovalbumin (OVA, Sigma, St. Louis, USA) absorbed to 2 mg of Al(OH)3 (Alu Gel S; 2% Al(OH)3, Serva, Heidelberg, FRG) and diluted with saline to a volume of 0.2 ml or various amounts (1, 3, 10, 30, or 90 μg per mouse) of alum-precipitated OVA323-339 peptide (98% purity, piChem R&D, Graz Austria) in 0.2 ml on days 0 and 14. Before and at different time points on days 0 and 14 after the OVA or OVA323-339 peptide administration about 200 μl of blood are collected by puncture of the retro-orbital plexus under ether anesthesia.
The sera are collected and stored frozen at −20° C. until analyzed. […]
Murine IL-2, IFN-γ and IL-4 are analyzed by immunoassays (Quantikine R&D Systems, Minneapolis, Minn., USA). Results are expressed as pg per ml serum expressed as mean±SEM pg of the cytokine indicated per ml serum. Test and control groups are evaluated by Dunn test by Kruskall-Wallis One Way Anova using the SigmaStat® program.
Serum IL-4 levels after primary and secondary OVA323-339 peptide antigen stimulation are shown in TABLE 3: Groups of 6 mice receive various doses (1, 3, 10, 30 and 90 μg/mouse) of alum-precipitated OVA323-339 peptide i.p. on day 0 and 14. Animals of the control group are injected with alum. Blood is collected before and at 2, 4, and 6 hours after the first (A) and after the second peptide injection (B). IL-4 is determined in the sera by an ELISA. Results are expressed as mean pg per ml serum±SEM. […]

TNF-α = test: Serum TNF-α in DO11.10 mice primed with OVA-peptide and challenged with LPS
Experimental: as §1, §2, §3, §4
The effects of various doses of LPS (100, 300, or 500 μg/mouse) on the production of TNF-α in the serum of non-sensitized DO11.10 mice or mice sensitized by i.p. injection of OVA-peptide (30 μg/mouse, 18 hours prior to LPS challenge) are given in TABLE 8. The TNF-α serum levels are expressed as mean pg per ml serum±SEM.

OVA323-339: peptide derived from chicken ovalbumin containing amino acids from position 323 to 339 (KISQAVHAAHAEINEAG; UniProt P01012 323-339, looked up, fragment)
effect of OVA-peptide priming on IL-1α serum levels (IL-1α): rapid increase | IL-1β in OVA-peptide primed versus unprimed mice (IL-1β; 100 μg LPS, 2 hours): 1.6 fold | IL-1β in OVA-peptide primed versus unprimed mice (IL-1β; 100 μg LPS, 4 hours): 1.7 fold | IL-1β in OVA-peptide primed versus unprimed mice (IL-1β; 100 μg LPS, 6 hours): 7.8 fold | IL-1β in OVA-peptide primed versus unprimed mice (IL-1β; 300 μg LPS, 2 hours): 1.9 fold | IL-1β in OVA-peptide primed versus unprimed mice (IL-1β; 300 μg LPS, 4 hours): 2.7 fold | IL-1β in OVA-peptide primed versus unprimed mice (IL-1β; 300 μg LPS, 6 hours): 3.0 fold | IL-1β in OVA-peptide primed versus unprimed mice (IL-1β; 500 μg LPS, 2 hours): 3.5 fold | IL-1β in OVA-peptide primed versus unprimed mice (IL-1β; 500 μg LPS, 4 hours): 2.2 fold | IL-1β in OVA-peptide primed versus unprimed mice (IL-1β; 500 μg LPS, 6 hours): 5.7 fold | IL-4 level in pg/ml serum on day 0 after 0 hours (IL-4; 1 μg OVA323-339 i.p.): 25.770 ± 2.618 pg/mL | IL-4 level in pg/ml serum on day 0 after 2 hours (IL-4; 1 μg OVA323-339 i.p.): 36.426 ± 5.871 pg/mL | IL-4 level in pg/ml serum on day 0 after 4 hours (IL-4; 1 μg OVA323-339 i.p.): 4.094 ± 1.072 pg/mL | IL-4 level in pg/ml serum on day 0 after 6 hours (IL-4; 1 μg OVA323-339 i.p.): 13.354 ± 4.010 pg/mL | change of IL-4 levels (IL-4; 1 μg of peptide, first injection): remain unchanged | IL-4 level in pg/ml serum on day 0 after 0 hours (IL-4; 3 μg OVA323-339 i.p.): 17.905 ± 3.616 pg/mL | IL-4 level in pg/ml serum on day 0 after 2 hours (IL-4; 3 μg OVA323-339 i.p.): 37.706 ± 4.028 pg/mL | IL-4 level in pg/ml serum on day 0 after 4 hours (IL-4; 3 μg OVA323-339 i.p.): 7.903 ± 0.957 pg/mL | IL-4 level in pg/ml serum on day 0 after 6 hours (IL-4; 3 μg OVA323-339 i.p.): 11.051 ± 2.549 pg/mL | increase of serum IL-4 levels compared to alum control (IL-4; 3 μg of peptide, after 2 hours): only slightly | IL-4 level in pg/ml serum on day 0 after 0 hours (IL-4; 10 μg OVA323-339 i.p.): 16.296 ± 3.397 pg/mL | IL-4 level in pg/ml serum on day 0 after 2 hours (IL-4; 10 μg OVA323-339 i.p.): 41.870 ± 9.751 pg/mL | IL-4 level in pg/ml serum on day 0 after 4 hours (IL-4; 10 μg OVA323-339 i.p.): 18.804 ± 1.757 pg/mL | IL-4 level in pg/ml serum on day 0 after 6 hours (IL-4; 10 μg OVA323-339 i.p.): 5.735 ± 2.226 pg/mL | increase of serum IL-4 levels compared to alum control (IL-4; 10 μg of peptide, after 2 hours): only slightly | IL-4 level in pg/ml serum on day 0 after 0 hours (IL-4; 30 μg OVA323-339 i.p.): 16.524 ± 2.209 pg/mL | IL-4 level in pg/ml serum on day 0 after 2 hours (IL-4; 30 μg OVA323-339 i.p.): 93.594 ± 29.015 pg/mL | IL-4 level in pg/ml serum on day 0 after 4 hours (IL-4; 30 μg OVA323-339 i.p.): 41.725 ± 10.226 pg/mL | IL-4 level in pg/ml serum on day 0 after 6 hours (IL-4; 30 μg OVA323-339 i.p.): 17.173 ± 2.069 pg/mL | rise of serum IL-4 levels (IL-4; 30 μg of peptide, at 2 hours): 3 fold | IL-4 level in pg/ml serum on day 0 after 2 hours (IL-4; 90 μg OVA323-339 i.p.): 273.017 ± 95.997 pg/mL | IL-4 level in pg/ml serum on day 0 after 4 hours (IL-4; 90 μg OVA323-339 i.p.): 146.940 ± 21.784 pg/mL | IL-4 level in pg/ml serum on day 0 after 6 hours (IL-4; 90 μg OVA323-339 i.p.): 127.616 ± 7.397 pg/mL | rise of serum IL-4 levels (IL-4; 90 μg peptide, after 4 and 6 hours): 7-8 fold | increase of serum IL-4 levels (IL-4; 90 μg peptide, after 2 hours): 14 fold | rise in the IL-4 levels after the second antigen stimulation (IL-4; second antigen stimulation (day 14)): up to several 100 fold | change of IL-4 levels compared to the control (IL-4; second injection of 1 μg of peptide 2 weeks later): does not change | TNF-α in OVA-primed versus unprimed mice (TNF-α; 100 μg LPS, 2 hours): 9.7 fold | change in TNF-α levels, OVA-primed versus unprimed (TNF-α; 100 μg LPS, 4 hours): no significant changes | TNF-α in OVA-peptide primed versus unprimed mice (TNF-α; 300 μg LPS, 2 hours): 7.8 fold | difference in TNF-α levels, OVA-peptide primed versus unprimed (TNF-α; 300 μg LPS, 4 hours): no difference | TNF-α in OVA-peptide primed versus unprimed mice (TNF-α; 500 μg LPS, 2 hours): 5.2 fold
